# From PubChem BioAssay (NCI)
#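 96-well plates; 48 h exposure; 5 concentrations. Endpoints by linear interpolation between flanking doses. Not reached: highest tested concentration assigned. Definition used: TGI = concentration required for complete inhibition of growth.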
# What was measured:
# Experiment in all cases: NCI-60 cell line screen, 48 h
# SN12C renal = test system: SN12C renal
# LXFL 529 NSCLC = test system: LXFL 529 NSCLC
# NCI-H460 lung = test system: NCI-H460 lung
# A549 NSCLC = test system: A549 NSCLC
# MOLT-4 leukemia = test system: MOLT-4 leukemia
# DMS 273 small cell lung = test system: DMS 273 small cell lung
# CCRF-CEM leukemia = test system: CCRF-CEM leukemia
# OVCAR-8 ovarian = test system: OVCAR-8 ovarian
# SK-MEL-28 melanoma = test system: SK-MEL-28 melanoma
# TK-10 renal = test system: TK-10 renal
# HOP-18 NSCLC = test system: HOP-18 NSCLC
# SNB-78 CNS = test system: SNB-78 CNS
# COLO 205 colon = test system: COLO 205 colon
# SNB-19 CNS = test system: SNB-19 CNS
# SK-MEL-5 melanoma = test system: SK-MEL-5 melanoma
# IGROV1 ovarian = test system: IGROV1 ovarian
# 786-0 renal = test system: 786-0 renal
# OVCAR-4 ovarian = test system: OVCAR-4 ovarian
# EKVX NSCLC = test system: EKVX NSCLC
# M19-MEL melanoma = test system: M19-MEL melanoma
# SF-268 CNS = test system: SF-268 CNS
# HOP-92 NSCLC = test system: HOP-92 NSCLC
# SNB-75 CNS = test system: SNB-75 CNS
# HT29 colon = test system: HT29 colon
# HL-60(TB) leukemia = test system: HL-60(TB) leukemia
# CAKI-1 renal = test system: CAKI-1 renal
# SW-620 colon = test system: SW-620 colon
# HCT-15 colon = test system: HCT-15 colon
# KM20L2 colon = test system: KM20L2 colon
# HOP-62 NSCLC = test system: HOP-62 NSCLC
# OVCAR-3 ovarian = test system: OVCAR-3 ovarian
# UACC-62 melanoma = test system: UACC-62 melanoma
# UACC-257 melanoma = test system: UACC-257 melanoma
# MALME-3M melanoma = test system: MALME-3M melanoma
# LOX IMVI melanoma = test system: LOX IMVI melanoma
# K-562 leukemia = test system: K-562 leukemia
# HCC-2998 colon = test system: HCC-2998 colon
# SK-OV-3 ovarian = test system: SK-OV-3 ovarian
# RXF 393 renal = test system: RXF 393 renal
# SF-295 CNS = test system: SF-295 CNS
# UO-31 renal = test system: UO-31 renal
# M14 melanoma = test system: M14 melanoma
# SR leukemia = test system: SR leukemia
# RXF-631 renal = test system: RXF-631 renal
# ACHN renal = test system: ACHN renal
# A498 renal = test system: A498 renal
# SF-539 CNS = test system: SF-539 CNS
# DLD-1 colon = test system: DLD-1 colon
# KM12 colon = test system: KM12 colon
# DMS 114 small cell lung = test system: DMS 114 small cell lung
# HCT-116 colon = test system: HCT-116 colon
# U251 CNS = test system: U251 CNS
# NCI-H23 lung = test system: NCI-H23 lung
# XF 498 CNS = test system: XF 498 CNS
# OVCAR-5 ovarian = test system: OVCAR-5 ovarian
# RPMI-8226 leukemia = test system: RPMI-8226 leukemia
# NCI-H226 lung = test system: NCI-H226 lung
# SK-MEL-2 melanoma = test system: SK-MEL-2 melanoma
smiles,measurement,setting,value
CC1=C2[C@@H](c3ccccc3)C3C=CC2(C=C3C(F)(F)F)N(C(=O)NC2CCCCC2)C1=O (some centres undefined),TGI,SN12C renal,> 100 µM
same,TGI,LXFL 529 NSCLC,> 100 µM
same,TGI,NCI-H460 lung,> 100 µM
same,TGI,A549 NSCLC,> 100 µM
same,TGI,MOLT-4 leukemia,> 100 µM
same,TGI,DMS 273 small cell lung,> 100 µM
same,TGI,CCRF-CEM leukemia,> 100 µM
same,TGI,OVCAR-8 ovarian,> 100 µM
same,TGI,SK-MEL-28 melanoma,> 100 µM
same,TGI,TK-10 renal,> 100 µM
same,TGI,HOP-18 NSCLC,> 100 µM
same,TGI,SNB-78 CNS,> 100 µM
same,TGI,COLO 205 colon,> 100 µM
same,TGI,SNB-19 CNS,> 100 µM
same,TGI,SK-MEL-5 melanoma,> 100 µM
same,TGI,IGROV1 ovarian,> 100 µM
same,TGI,786-0 renal,> 100 µM
same,TGI,OVCAR-4 ovarian,> 100 µM
same,TGI,EKVX NSCLC,> 100 µM
same,TGI,M19-MEL melanoma,> 100 µM
same,TGI,SF-268 CNS,> 100 µM
same,TGI,HOP-92 NSCLC,> 100 µM
same,TGI,SNB-75 CNS,> 100 µM
same,TGI,HT29 colon,> 100 µM
same,TGI,HL-60(TB) leukemia,39.2 µM
same,TGI,CAKI-1 renal,> 100 µM
same,TGI,SW-620 colon,> 100 µM
same,TGI,HCT-15 colon,> 100 µM
same,TGI,KM20L2 colon,> 100 µM
same,TGI,HOP-62 NSCLC,> 100 µM
same,TGI,OVCAR-3 ovarian,> 100 µM
same,TGI,UACC-62 melanoma,> 100 µM
same,TGI,UACC-257 melanoma,> 100 µM
same,TGI,MALME-3M melanoma,> 100 µM
same,TGI,LOX IMVI melanoma,> 100 µM
same,TGI,K-562 leukemia,> 100 µM
same,TGI,HCC-2998 colon,> 100 µM
same,TGI,SK-OV-3 ovarian,> 100 µM
same,TGI,RXF 393 renal,> 100 µM
same,TGI,SF-295 CNS,> 100 µM
same,TGI,UO-31 renal,> 100 µM
same,TGI,M14 melanoma,> 100 µM
same,TGI,SR leukemia,66.8 µM
same,TGI,RXF-631 renal,> 100 µM
same,TGI,ACHN renal,> 100 µM
same,TGI,A498 renal,> 100 µM
same,TGI,SF-539 CNS,> 100 µM
same,TGI,DLD-1 colon,> 100 µM
same,TGI,KM12 colon,> 100 µM
same,TGI,DMS 114 small cell lung,> 100 µM
same,TGI,HCT-116 colon,> 100 µM
same,TGI,U251 CNS,> 100 µM
same,TGI,NCI-H23 lung,> 100 µM
same,TGI,XF 498 CNS,> 100 µM
same,TGI,OVCAR-5 ovarian,> 100 µM
Cc1cc2c(=O)cc(-c3ccncc3)oc2c(C(=O)O)c1C,TGI,SN12C renal,> 100 µM
same,TGI,LXFL 529 NSCLC,> 100 µM
same,TGI,NCI-H460 lung,> 100 µM
same,TGI,A549 NSCLC,> 100 µM
same,TGI,MOLT-4 leukemia,> 100 µM
same,TGI,DMS 273 small cell lung,> 100 µM
same,TGI,CCRF-CEM leukemia,> 100 µM
same,TGI,OVCAR-8 ovarian,> 100 µM
same,TGI,SK-MEL-28 melanoma,> 100 µM
same,TGI,RPMI-8226 leukemia,> 100 µM
same,TGI,TK-10 renal,> 100 µM
same,TGI,HOP-18 NSCLC,> 100 µM
same,TGI,SNB-78 CNS,> 100 µM
same,TGI,COLO 205 colon,> 100 µM
same,TGI,SNB-19 CNS,> 100 µM
same,TGI,NCI-H226 lung,> 100 µM
same,TGI,IGROV1 ovarian,> 100 µM
same,TGI,786-0 renal,> 100 µM
same,TGI,EKVX NSCLC,> 100 µM
same,TGI,M19-MEL melanoma,> 100 µM
same,TGI,SF-268 CNS,> 100 µM
same,TGI,HOP-92 NSCLC,> 100 µM
same,TGI,SNB-75 CNS,> 100 µM
same,TGI,HT29 colon,> 100 µM
same,TGI,HL-60(TB) leukemia,> 100 µM
same,TGI,SW-620 colon,> 100 µM
same,TGI,HCT-15 colon,> 100 µM
same,TGI,KM20L2 colon,> 100 µM
same,TGI,HOP-62 NSCLC,> 100 µM
same,TGI,OVCAR-3 ovarian,> 100 µM
same,TGI,UACC-62 melanoma,> 100 µM
same,TGI,UACC-257 melanoma,> 100 µM
same,TGI,MALME-3M melanoma,> 100 µM
same,TGI,LOX IMVI melanoma,> 100 µM
same,TGI,HCC-2998 colon,> 100 µM
same,TGI,SK-OV-3 ovarian,> 100 µM
same,TGI,RXF 393 renal,> 100 µM
same,TGI,SF-295 CNS,> 100 µM
same,TGI,UO-31 renal,> 100 µM
same,TGI,SR leukemia,> 100 µM
same,TGI,RXF-631 renal,> 100 µM
same,TGI,ACHN renal,> 100 µM
same,TGI,SF-539 CNS,> 100 µM
same,TGI,HCT-116 colon,> 100 µM
same,TGI,U251 CNS,> 100 µM
same,TGI,NCI-H23 lung,> 100 µM
same,TGI,XF 498 CNS,> 100 µM
same,TGI,SK-MEL-2 melanoma,> 100 µM
same,TGI,OVCAR-5 ovarian,> 100 µM
